Source: patent US9174994B2, “Enhanced treatment regimens using mTor inhibitors” (INTELLIKINE LLC, priority 2011, dated 2015)

Test: Phase I clinical trial: treatment-emergent adverse events (patients, n (%)), dose limiting toxicity, MTD
Assay type: in vivo
[1] = Table 8: Total QD Dosing (N = 25)
[2] = Table 8: Total QDx3d QW (N = 14)

Protocol: Safety, maximum tolerated dose (MTD), pharmacokinetics (PK) and preliminary antitumor activity were evaluated.
Pharmacodynamic (PD) endpoints were evaluated in surrogate (peripheral blood cells [PBCs], skin) and tumor tissues for the phosphorylation of TORC1-dependent markers (4EBP1/S6), and TORC2-dependent markers (AKT/PRAS40).

CC(C)n1nc(-c2ccc3oc(N)nc3c2)c2c(N)ncnc21 [compound A]
Eye infection (Table 8: Total (N = 60)): 1 (2%)
Fatigue (Table 8: Total (N = 60)): 1 (2%)
Gastritis (Table 8: Total (N = 60)): 1 (2%)
Gravitational oedema (Table 8: Total (N = 60)): 1 (2%)
Headache (Table 8: Total (N = 60)): 1 (2%)
Hyperbilirubinaemia (Table 8: Total (N = 60)): 1 (2%)
Hypertransaminasaemia (Table 8: Total (N = 60)): 1 (2%)
Hypertriglyceridaemia (Table 8: Total (N = 60)): 1 (2%)
Hypocalcaemia (Table 8: Total (N = 60)): 1 (2%)
Hypomagnesaemia (Table 8: Total (N = 60)): 1 (2%)
Hypotension (Table 8: Total (N = 60)): 1 (2%)
Insomnia (Table 8: Total (N = 60)): 1 (2%)
Low fever (Table 8: Total (N = 60)): 1 (2%)
Malaise (Table 8: Total (N = 60)): 1 (2%)
Nausea (Table 8: Total (N = 60)): 1 (2%)
Oral discomfort (Table 8: Total (N = 60)): 1 (2%)
Orthostatic hypotension (Table 8: Total (N = 60)): 1 (2%)
Palmar-plantar erythrodysaesthesia syndrome (Table 8: Total (N = 60)): 1 (2%)
Panniculitis (Table 8: Total (N = 60)): 1 (2%)
Platelet count decreased (Table 8: Total (N = 60)): 1 (2%)
Polyuria (Table 8: Total (N = 60)): 1 (2%)
Pyrexia (Table 8: Total (N = 60)): 1 (2%)
Rash (Table 8: Total (N = 60)): 1 (2%)
Rash macular (Table 8: Total (N = 60)): 1 (2%)
Skin discolouration (Table 8: Total (N = 60)): 1 (2%)
Skin exfoliation (Table 8: Total (N = 60)): 1 (2%)
Urinary tract infection (Table 8: Total (N = 60)): 1 (2%)
Urine tract infection (Table 8: Total (N = 60)): 1 (2%)
Vomiting (Table 8: Total (N = 60)): 1 (2%)
WEAKNESS (Table 8: Total (N = 60)): 1 (2%)
Weight decreased (Table 8: Total (N = 60)): 1 (2%)
Catheter site inflammation [1]: 0 (0%)
Catheter site pain [1]: 0 (0%)
Coagulopathy [1]: 1 (4%)
Confusional state [1]: 1 (4%)
Cough [1]: 1 (4%)
DIARRHEA [1]: 0 (0%)
Dizziness [1]: 1 (4%)
Dyspnoea exertional [1]: 1 (4%)
Eye infection [1]: 1 (4%)
Fatigue [1]: 0 (0%)
Gastritis [1]: 1 (4%)
Gravitational oedema [1]: 1 (4%)
Headache [1]: 0 (0%)
Hyperbilirubinaemia [1]: 0 (0%)
Hypertransaminasaemia [1]: 0 (0%)
Hypertriglyceridaemia [1]: 0 (0%)
Hypocalcaemia [1]: 1 (4%)
Hypomagnesaemia [1]: 0 (0%)
Hypotension [1]: 0 (0%)
Insomnia [1]: 1 (4%)
Low fever [1]: 0 (0%)
Malaise [1]: 0 (0%)
Nausea [1]: 0 (0%)
Oral discomfort [1]: 0 (0%)
Orthostatic hypotension [1]: 1 (4%)
Palmar-plantar erythrodysaesthesia syndrome [1]: 0 (0%)
Panniculitis [1]: 1 (4%)
Platelet count decreased [1]: 0 (0%)
Polyuria [1]: 1 (4%)
Pyrexia [1]: 0 (0%)
Rash [1]: 0 (0%)
Rash macular [1]: 0 (0%)
Skin discolouration [1]: 1 (4%)
Skin exfoliation [1]: 1 (4%)
Urinary tract infection [1]: 0 (0%)
Urine tract infection [1]: 0 (0%)
Vomiting [1]: 0 (0%)
WEAKNESS [1]: 0 (0%)
Weight decreased [1]: 1 (4%)
Catheter site inflammation [2]: 1 (7%)
Catheter site pain [2]: 1 (7%)
Coagulopathy [2]: 0 (0%)
Confusional state [2]: 0 (0%)
Cough [2]: 0 (0%)
DIARRHEA [2]: 0 (0%)
Dizziness [2]: 0 (0%)
Dyspnoea exertional [2]: 0 (0%)
Eye infection [2]: 0 (0%)
Fatigue [2]: 1 (7%)
Gastritis [2]: 0 (0%)
Gravitational oedema [2]: 0 (0%)
Headache [2]: 1 (7%)
Hyperbilirubinaemia [2]: 1 (7%)
Hypertransaminasaemia [2]: 1 (7%)
Hypertriglyceridaemia [2]: 1 (7%)
Hypocalcaemia [2]: 0 (0%)
Hypomagnesaemia [2]: 1 (7%)
Hypotension [2]: 1 (7%)
Insomnia [2]: 0 (0%)
Low fever [2]: 1 (7%)
Malaise [2]: 0 (0%)
Nausea [2]: 0 (0%)
Oral discomfort [2]: 0 (0%)
Orthostatic hypotension [2]: 0 (0%)
Palmar-plantar erythrodysaesthesia syndrome [2]: 1 (7%)
Panniculitis [2]: 0 (0%)
Platelet count decreased [2]: 1 (7%)
Polyuria [2]: 0 (0%)
Pyrexia [2]: 1 (7%)
Rash [2]: 0 (0%)
Rash macular [2]: 1 (7%)
Skin discolouration [2]: 0 (0%)
Skin exfoliation [2]: 0 (0%)
Urinary tract infection [2]: 1 (7%)
Urine tract infection [2]: 0 (0%)
Vomiting [2]: 0 (0%)
WEAKNESS [2]: 0 (0%)
